In US20150148249A1, “METHOD OF IMPROVING THE SENSITIVITY OF COMPETITIVE IMMUNOASSAY” (SHENZHEN BIOEASY BIOTECHNOLOGY CO., LTD, priority 2012, published 2015):
Where “and” joins values, the source holds several entries; their conditions need not be identical. Equal entries are not always repeated.

Columns and labels:
Assay type in all cases: binding
ciprofloxacin antibody [1] = assay: Competitive ELISA for ciprofloxacin, pre-reaction mode vs direct addition (Embodiment 1)
Protocol: Coat the ELISA plate with ciprofloxacin BSA conjugate, 1 μg/mL, 100 μL per well, blocking overnight at 4° C. Then block with 3% skimmed milk powder the following day. Prepare ciprofloxacin standards, 0 ppb, 1 ppb, 3 ppb, 9 ppb, 27 ppb, 81 ppb with the wash buffer (PBST).
The experiment is divided into two groups.
Group 1: pre-incubate 60 μL standards and 60 μL diluted ciprofloxacin antibody for 20 minutes at 37° C.; then take 100 μL reaction product and add to the ELISA plate covering with ciprofloxacin conjugate, react for 30 minutes at 37° C.; wash the plate, add HRP labeled secondary antibody, react for 30 minutes at 37° C., wash the plate; add chromogenic agent 100 μL, react for 15 minutes at 37° C.; and finally add 50 μL termination solution, then measure the OD450 with a microplate reader.
Group 2: add into the ELISA plate covering with ciprofloxacin conjugate with 50 μL standard and 50 μL antibody, in the sequence; react for 30 minutes at 37° C., wash the plate; add HRP labeled secondary antibody, react for 30 minutes at 37° C., wash the plate; add chromogenic agent 100 μL, react for 15 minutes at 37° C.; and finally add 50 μL termination solution, then measure OD450 with a microplate reader.

ciprofloxacin antibody [2] = assay: Competitive ELISA for ciprofloxacin, different re-reaction times (Embodiment 2)
Protocol: (§1) Coat the ELISA plate with ciprofloxacin BSA conjugate, 1 μg/mL, 100 μL per well, blocking overnight at 4° C. Then block with 3% skimmed milk powder the following day. Prepare ciprofloxacin standards, 0 ppb, 1 ppb, 5 ppb, and 10 ppb with wash buffer.
The experiment is divided into 5 groups, each group takes 100 μL standard and 100 μL ciprofloxacin antibody, pre-react for 20 minutes at 37° C. in the microplates, then add to ciprofloxacin ELISA plates:
Take 120 μL pre-reaction product to the ciprofloxacin ELISA plates from group 1, group 2, group 3 and group 4, and resume reacting for 30 minutes, 20 minutes, 10 minutes and 5 minutes respectively; wash the plate; add HRP labeled secondary antibody, react for 30 minutes at 37° C., wash the plate; add chromogenic agent 100 μL, react for 15 minutes at 37° C.; and finally add 50 μL termination solution, then measure the OD450.
Take 20 μL pre-reaction solution of antibody and standard from group 5 and add to the ciprofloxacin ELISA plate, react for 1 minute, discard the liquid in the well, and pat dry on absorbent paper, then add 20 μL mixture solution and react for 1 minute, repeat for 6 times altogether; wash the plate; add HRP labeled secondary antibody, react for 30 minutes at 37° C., wash the plate; add chromogenic agent 100 μL, react for 15 minutes at 37° C.; and finally add 50 μL termination solution, then measure the OD450.

ciprofloxacin antibody [3] = assay: Competitive ELISA for ciprofloxacin, different pre-reaction times (Embodiment 3); conditions: re-reaction 1 min, 6 times
Protocol: as §1
The experiment is divided into 4 groups, each group takes 100 μL standard and 100 μL ciprofloxacin antibody, pre-incubate for 5 minutes, 10 minutes, 15 minutes and 20 minutes at 37° C. in the microplates respectively, then take 20 μL mixture solutions of antibody and standard and add to the ciprofloxacin ELISA plate, react for 1 minute, discard the liquid in the well, and pat dry on absorbent paper, then add 20 μL mixture solution and react for 1 minute, repeat for a total 6 times; wash the plate; add HRP labeled secondary antibody, react for 30 minutes at 37° C., wash the plate; add chromogenic agent 100 μL, react for 15 minutes at 37° C.; and finally add 50 μL termination solution, then measure the OD450.

Ractopamine antibody = assay: Competitive ELISA for Ractopamine (Embodiment 4)
Protocol: Preparing the Ractopamine microplate: Ractopamine coating antigen is added to the microplate, 100 μL/well, react for 2 hours at 37° C.; discard the liquid in the well; add blocking solution into the microplate, 100 μL/well, blocking for 1 hour at 37° C.; wash 3 times with wash buffer, leave for reservation. Prepare Ractopamine standards with concentrations of 0 ppb, 0.05 ppb, 0.15 ppb, 0.45 ppb, 1.35 ppb, 4.05 ppb respectively, with wash buffer.
Group 1: add 60 μL the standard and the Ractopamine antibody respectively into a new microplate, pre-react for 20 minutes; take 20 μL mixture solution of antibody and standard into the Ractopamine microplate, react for 1 minute, discard the liquid in the well, and pat dry on absorbent paper, then add 20 μL mixture solution and react for 1 minute, repeat for 5 times altogether, the pre-reaction product added into each well is 100 μL altogether; add HRP labeled secondary antibody, 100 μL per well, react for 45 minutes at 37° C.; wash the plate; add chromogenic agent 100 μL, react for 15 minutes at 37° C.; and finally add 50 μL termination solution, then measure the OD450.
Group 2: add 60 μL the standard and the Ractopamine antibody respectively into a new microplate, pre-react for 20 minutes; take 100 μL mixture solution of antibody and standard into the Ractopamine microplate, react for 30 minutes, discard the liquid in the well, and pat dry on absorbent paper; wash the plate; add HRP labeled secondary antibody, 100 μL per well, react for 45 minutes at 37° C., wash the plate; add chromogenic agent 100 μL, react for 15 minutes at 37° C.; and finally add 50 μL termination solution, then measure the OD450.

chloramphenicol Mcab = assay: Competitive chemiluminescence immunoassay for chloramphenicol (Embodiment 5)
Protocol: • 1) Preparation of the chloramphenicol microplate: add chloramphenicol-BSA conjugate into the ELISA plate, 100 μL per well, overnight at 4° C., wash 3 times with a separation time of 3 minutes each, pat dry; add 5% skimmed milk powder 130 μL per well, block for 1 hour at 37° C., pat dry; wash 3 times with wash buffer, pat dry, leave for reservation. Prepare the chloramphenicol standard solutions with wash buffer: 0 ppb, 0.01 ppb, 0.03 ppb, 0.09 ppb, 0.27 ppb, 0.81 ppb. • 2) Mix the standard and the chloramphenicol Mcab in equal volumes, incubate for 20 minutes at 37° C.; then transfer the reaction product into chloramphenicol microplate; • Group 1: transfer the reaction product into ELISA plate, 20 μL/well, reaction for 1 minute at 37° C., discard liquid in the well, repeat the operation 5 times, and the pre-reaction product added to each well is total 100 μL; • Group 2: one-time transfer the whole 100 μL reaction product into the chloramphenicol microplate, reacting for 20 minute at 37° C.; • 3) Wash 3 times; add HRP labeled secondary antibody, 100 μL per well, react for 45 minutes at 37° C.; wash 5 times; after adding luminous substrate, chemiluminescence measuring instrument is applied to measure the luminous intensity.

Work on `O=C(O)c1cn(C2CC2)c2cc(N3CCNCC3)c(F)cc2c1=O` [Ciprofloxacin] yielded an OD450 (ciprofloxacin antibody [1]; Group 1 (20 min pre-incubation, then 30 min on plate), ciprofloxacin 1 ppb) of 1.975, an OD450 (ciprofloxacin antibody [1]; Group 1 (20 min pre-incubation, then 30 min on plate), ciprofloxacin 3 ppb) of 1.632 and an OD450 (ciprofloxacin antibody [1]; Group 1 (20 min pre-incubation, then 30 min on plate), ciprofloxacin 9 ppb) of 1.448. The OD450 (ciprofloxacin antibody [1]; Group 1 (20 min pre-incubation, then 30 min on plate), ciprofloxacin 27 ppb) was 0.924, the OD450 (ciprofloxacin antibody [1]; Group 1 (20 min pre-incubation, then 30 min on plate), ciprofloxacin 81 ppb) was 0.483 and the OD450 (ciprofloxacin antibody [1]; Group 2 (no pre-incubation, 30 min on plate), ciprofloxacin 1 ppb) was 1.904. It also gave an OD450 (ciprofloxacin antibody [1]; Group 2 (no pre-incubation, 30 min on plate), ciprofloxacin 3 ppb) of 1.643, an OD450 (ciprofloxacin antibody [1]; Group 2 (no pre-incubation, 30 min on plate), ciprofloxacin 9 ppb) of 1.203 and an OD450 (ciprofloxacin antibody [1]; Group 2 (no pre-incubation, 30 min on plate), ciprofloxacin 27 ppb) of 0.952. The OD450 (ciprofloxacin antibody [1]; Group 2 (no pre-incubation, 30 min on plate), ciprofloxacin 81 ppb) was 0.523, the OD450 (ciprofloxacin antibody [2]; ciprofloxacin 1 ppb, re-reaction 1 min, 6 times) was 0.863 and 0.813 and the OD450 (ciprofloxacin antibody [2]; ciprofloxacin 1 ppb, re-reaction time 5 min) was 1.21 and 1.189. The OD450 (ciprofloxacin antibody [2]; ciprofloxacin 1 ppb, re-reaction time 10 min) was 1.517 and 1.488, the OD450 (ciprofloxacin antibody [2]; ciprofloxacin 1 ppb, re-reaction time 20 min) was 1.884 and 1.874 and the OD450 (ciprofloxacin antibody [2]; ciprofloxacin 1 ppb, re-reaction time 30 min) was 2.036 and 1.989. The OD450 (ciprofloxacin antibody [2]; ciprofloxacin 5 ppb, re-reaction 1 min, 6 times) was 0.412 and 0.372, the OD450 (ciprofloxacin antibody [2]; ciprofloxacin 5 ppb, re-reaction time 5 min) was 0.706 and 0.664 and the OD450 (ciprofloxacin antibody [2]; ciprofloxacin 5 ppb, re-reaction time 10 min) was 1.003 and 0.984. For the same compound, the OD450 (ciprofloxacin antibody [2]; ciprofloxacin 5 ppb, re-reaction time 20 min) was 1.342 and 1.343, the OD450 (ciprofloxacin antibody [2]; ciprofloxacin 5 ppb, re-reaction time 30 min) was 1.501 and 1.499 and the OD450 (ciprofloxacin antibody [2]; ciprofloxacin 10 ppb, re-reaction 1 min, 6 times) was 0.302 and 0.332. For the same compound, the OD450 (ciprofloxacin antibody [2]; ciprofloxacin 10 ppb, re-reaction time 5 min) was 0.565 and 0.485, the OD450 (ciprofloxacin antibody [2]; ciprofloxacin 10 ppb, re-reaction time 10 min) was 0.894 and 0.749 and the OD450 (ciprofloxacin antibody [2]; ciprofloxacin 10 ppb, re-reaction time 20 min) was 1.204 and 1.101. For the same compound, the OD450 (ciprofloxacin antibody [2]; ciprofloxacin 10 ppb, re-reaction time 30 min) was 1.269 and 1.182, the IC50 (ciprofloxacin antibody [2]; competitive reaction with solid phase antigen in a short time after pre-reaction) was 1 ppb and the IC50 (ciprofloxacin antibody [2]; long re-reaction time (before improvement)) was 10 ppb. The OD450 (ciprofloxacin antibody [3]; ciprofloxacin 1 ppb, pre-incubation time 5 min) was 0.337, the OD450 (ciprofloxacin antibody [3]; ciprofloxacin 1 ppb, pre-incubation time 10 min) was 0.385 and 0.353 and the OD450 (ciprofloxacin antibody [3]; ciprofloxacin 1 ppb, pre-incubation time 15 min) was 0.399 and 0.401. The OD450 (ciprofloxacin antibody [3]; ciprofloxacin 1 ppb, pre-incubation time 20 min) was 0.434 and 0.439, the OD450 (ciprofloxacin antibody [3]; ciprofloxacin 5 ppb, pre-incubation time 5 min) was 0.17 and 0.169 and the OD450 (ciprofloxacin antibody [3]; ciprofloxacin 5 ppb, pre-incubation time 10 min) was 0.175 and 0.187. The OD450 (ciprofloxacin antibody [3]; ciprofloxacin 5 ppb, pre-incubation time 15 min) was 0.193 and 0.206, the OD450 (ciprofloxacin antibody [3]; ciprofloxacin 5 ppb, pre-incubation time 20 min) was 0.213 and 0.22 and the OD450 (ciprofloxacin antibody [3]; ciprofloxacin 10 ppb, pre-incubation time 5 min) was 0.15 and 0.133. The OD450 (ciprofloxacin antibody [3]; ciprofloxacin 10 ppb, pre-incubation time 10 min) was 0.152 and 0.136, the OD450 (ciprofloxacin antibody [3]; ciprofloxacin 10 ppb, pre-incubation time 15 min) was 0.153 and 0.149 and the OD450 (ciprofloxacin antibody [3]; ciprofloxacin 10 ppb, pre-incubation time 20 min) was 0.169 and 0.178. It also gave an OD (Ractopamine antibody; Group 1 (20 min pre-reaction; 20 μL, 1 min, 5 times), concentration 0.05 ppb) of 1.175, an OD (Ractopamine antibody; Group 1 (20 min pre-reaction; 20 μL, 1 min, 5 times), concentration 0.15 ppb) of 0.803 and an OD (Ractopamine antibody; Group 1 (20 min pre-reaction; 20 μL, 1 min, 5 times), concentration 0.45 ppb) of 0.517. It also gave an OD (Ractopamine antibody; Group 1 (20 min pre-reaction; 20 μL, 1 min, 5 times), concentration 1.35 ppb) of 0.324, an OD (Ractopamine antibody; Group 1 (20 min pre-reaction; 20 μL, 1 min, 5 times), concentration 4.05 ppb) of 0.183 and an OD (Ractopamine antibody; Group 2 (20 min pre-reaction; 100 μL, 30 min), concentration 0.05 ppb) of 1.584. For the same compound, the OD (Ractopamine antibody; Group 2 (20 min pre-reaction; 100 μL, 30 min), concentration 0.15 ppb) was 1.391, the OD (Ractopamine antibody; Group 2 (20 min pre-reaction; 100 μL, 30 min), concentration 0.45 ppb) was 1.003 and the OD (Ractopamine antibody; Group 2 (20 min pre-reaction; 100 μL, 30 min), concentration 1.35 ppb) was 0.602. For the same compound, the OD (Ractopamine antibody; Group 2 (20 min pre-reaction; 100 μL, 30 min), concentration 4.05 ppb) was 0.323.
`O=C(N[C@H](CO)[C@H](O)c1ccc([N+](=O)[O-])cc1)C(Cl)Cl` [chloramphenicol] was tested, and the B/B0 (chloramphenicol Mcab; Group 1 (20 μL/well, 1 min, 5 times), chloramphenicol standard 0.01 ppb) was 0.88 and 0.89, the B/B0 (chloramphenicol Mcab; Group 1 (20 μL/well, 1 min, 5 times), chloramphenicol standard 0.03 ppb) was 0.66 and 0.64 and the B/B0 (chloramphenicol Mcab; Group 1 (20 μL/well, 1 min, 5 times), chloramphenicol standard 0.09 ppb) was 0.49 and 0.48. The B/B0 (chloramphenicol Mcab; Group 1 (20 μL/well, 1 min, 5 times), chloramphenicol standard 0.27 ppb) was 0.21 and 0.23, the B/B0 (chloramphenicol Mcab; Group 1 (20 μL/well, 1 min, 5 times), chloramphenicol standard 0.81 ppb) was 0.11 and 0.17 and the B/B0 (chloramphenicol Mcab; Group 2 (one-time 100 μL, 20 min), chloramphenicol standard 0.01 ppb) was 0.96 and 0.94. The B/B0 (chloramphenicol Mcab; Group 2 (one-time 100 μL, 20 min), chloramphenicol standard 0.03 ppb) was 0.88 and 0.89, the B/B0 (chloramphenicol Mcab; Group 2 (one-time 100 μL, 20 min), chloramphenicol standard 0.09 ppb) was 0.69 and the B/B0 (chloramphenicol Mcab; Group 2 (one-time 100 μL, 20 min), chloramphenicol standard 0.27 ppb) was 0.46 and 0.48. The B/B0 (chloramphenicol Mcab; Group 2 (one-time 100 μL, 20 min), chloramphenicol standard 0.81 ppb) was 0.28 and 0.27.
